Results from patent US20220047598A1, “Use of Casein Kinase 1 Inhibitors For Treating Vascular Diseases” (Qanatpharma AG, priority 2018, published 2022).
“Also recorded” adds a separate entry of the source. Values belong to the molecule of their own block, whether it stands above or below them.

How the values were obtained:
[1] = system: mTNF reverse signaling (ERK1/2 phosphorylation) in mesenteric vascular smooth muscle cells; test: ERK1/2 phosphorylation by western blot in microvascular smooth muscle cells cultured from mouse mesenteric arteries; assay type: cell-based; conditions: for sTNFR1-Fc-induced ERK1/2 phosphorylation: microvascular smooth muscle cells, inhibitor concentration not given
Method: (§1) Referring to FIG. 1, microvascular smooth muscle cells were cultured form mouse mesenteric arteries and ERK1/2 phosphorylation was assessed by standard western blotting. Murine cremaster skeletal muscle resistance arteries were assessed by pressure myography. mTNF reverse signaling was induced by the intrinsically active TNF type I receptor construct, sTNFR1-Fc.
These findings were verified in cremaster skeletal muscle resistance arteries. […] Importantly, none of the above treatments affected agonist-induced vasoconstriction.
(§2) Referring to FIG. 3, mouse cremaster skeletal muscle resistance arteries were isolated and cannulated for pressure myography. Stepwise increases in transmural pressure (20-100 mmHg in 20 mmHg steps) elicit myogenic vasoconstriction. […] (FIG. 3d) CKI-7 is not effective in the absence of TNF signaling (i.e., TNF knockout arteries, TNF KO). (FIG. 3e) Phenylephrine-induced vasoconstriction in TNF KO arteries is not affected by CKI-7.

[2] = system: cremaster skeletal muscle resistance arteries; test: In vivo treatment of naive mice, then pressure myography of cremaster arteries; set-up: species or system mouse; conditions: for myogenic responsiveness: naive mice, 24 hrs later, ZT7
Method: Referring to FIG. 6d to f, naive mice were treated with PF-670462 (30-50 mg/kg dissolved in 200 μL water, intraperitoneal injection) or vehicle (200 μL water). 24 hrs later, in mid-rest phase (ZT7), cremaster skeletal muscle resistance arteries underwent pressure myography. […] (FIG. 6e) Phenylephrine-induced vasoconstriction is not altered by in vivo application of PF-670462.

[3] = Mean arterial blood pressure after acute injection; assay type: in vivo, mouse; conditions: acute injection 30 mg/kg intraperitoneal, n=3 per group
[4] = system: mouse cremaster skeletal muscle resistance arteries; test: Phenylephrine (agonist)-induced vasoconstriction in isolated cremaster resistance arteries; conditions: for phenylephrine-induced vasoconstriction (vessel health): wild-type arteries treated in vitro
[5] = system: CK1D/E; conditions: read-out: published IC50; cited from earlier work
[6] = system: mouse cremaster skeletal muscle resistance arteries; test: Pressure myography of isolated cremaster skeletal muscle resistance arteries: myogenic responsiveness, compound applied in vitro; conditions: for dose dependence of reduction in myogenic responsiveness: dose-response in vitro, n=4-6 vessels per dose
Method: as §1
Referring to FIG. 3, mouse cremaster skeletal muscle resistance arteries were isolated and cannulated for pressure myography. Stepwise increases in transmural pressure (20-100 mmHg in 20 mmHg steps) elicit myogenic vasoconstriction.
Referring to FIG. 4, mouse cremaster skeletal muscle resistance arteries were isolated and cannulated for pressure myography. Stepwise increases in transmural pressure (20-100 mmHg in 20 mmHg steps) elicit myogenic vasoconstriction.
(§3) Referring to FIG. 5, mouse cremaster skeletal muscle resistance arteries were isolated at mid-rest phase (ZT7) or mid-active phase (ZT19) and cannulated for pressure myography. One-step increases in transmural pressure (60 to 100 mmHg) elicit myogenic vasoconstriction. […] (FIG. 5c) Cremaster muscle resistance arteries underwent pressure myography and western blotting subsequently assessed ERK1/2 phosphorylation. […] (FIG. 5d) Representative western blot.
Referring to FIG. 6a to c, mice underwent myocardial infarction (ligation of the left-anterior descending coronary artery) or sham surgery. […] Cremaster skeletal muscle resistance arteries were isolated and cannulated for pressure myography.

[7] = system: ERK1/2 phosphorylation in cremaster resistance arteries; test: ERK1/2 phosphorylation by western blot in isolated cremaster resistance arteries after pressure myography; set-up: species or system mouse
Text: as §2
as §3, with “blot. (FIG. 5e) Resting diameter of the vessels is not affected by PF-670462. (FIG. 5f) Prior to administration of PF-670462, vessel health is intact as shown by robust vasoconstriction to phenylephrine. […] (FIG. 5h) Vessel health, indicated by robust phenylephrine-induced vasoconstriction, is not affected by PF-670462 administration.” for “blot.”

[8] = system: heart failure (myocardial infarction) mice; test: Chronic treatment of mice after myocardial infarction (heart failure) or sham surgery; assay type: in vivo, mouse; conditions: 7 wks
Method: Referring to FIG. 6g to j, following myocardial infarction or sham surgery, mice were chronically treated with PF-670462 (30 mg/kg, intraperitoneal injection) or vehicle (DMSO) for 7 wks (5 days/wk). […] (FIG. 6h) HF-induced elevations in myogenic tone are normalized by chronic treatment with PF-670462. (FIG. 6i)
Phenylephrine-induced vasoconstriction is intact with chronic PF-670462 treatment. Reduced tone at lower concentrations of phenylephrine in the PF-670462-treated group is the result of changes in resting myogenic tone. (FIG. 6j) Cardiac output, the quantification of blood outflow from the heart assessed with echocardiography, is elevated with chronic PF-670462 treatment.

[9] = scavenging TNF; cited from earlier work
[10] = system: skeletal muscle resistance arteries; conditions: scavenging TNF; cited from earlier work
[11] = system: mTNF reverse signaling in cremaster skeletal muscle resistance arteries; test: sTNFR1-Fc-stimulated vasoconstriction / mTNF reverse signaling in cremaster resistance arteries; set-up: species or system mouse
Method: as §1, §2

[12] = system: mTNF reverse signaling in human embryonic kidney (HEK) cells; test: mTNF reverse signaling (ERK1/2 phosphorylation) in transfected HEK cells stimulated with TNF antibody; assay type: cell-based; conditions: HEK cells transfected 24 hrs, stimulated 5 min
Text: Importantly, the cytoplasmic tail of mTNF contains the casein kinase 1 (CK1) recognition site (S(P)-X-X-S) that is removed in Trunc TNF, indicating the necessity for CK1 binding in mTNF reverse signaling.

[13] = in vitro application, concentration not given
[14] = chronic treatment 30 mg/kg intraperitoneal

Molecule: Nc1nccc(-c2c(-c3ccc(F)cc3)ncn2C2CCCCC2)n1 [PF-670462]
sTNFR1-Fc-induced ERK1/2 phosphorylation [1]: abolished
myogenic responsiveness ([2]; 30 mg/kg intraperitoneal): reduce myogenic responsiveness
myogenic responsiveness ([2]; 50 mg/kg intraperitoneal): reduce myogenic responsiveness
myogenic responsiveness in isolated cremaster arteries ([2]; applied in vivo, dose not given): reduced myogenic responsiveness
phenylephrine-induced vasoconstriction ([2]; in vivo application 30-50 mg/kg intraperitoneal): not altered
mean arterial blood pressure (MAP) [3]: reduces mean arterial blood pressure
phenylephrine-induced vasoconstriction ([4]; arteries from HF and sham mice, 550 nM in vitro): intact
phenylephrine-induced vasoconstriction (vessel health) [4]: intact; also recorded: not affected
IC50 [5]: 7.7 to 14 nM
myogenic responsiveness ([6]; 550 nM in vitro): reduces myogenic responsiveness
myogenic responsiveness in arteries from HF mice ([6]; 550 nM in vitro in bath, 8 weeks post myocardial infarction): normalizes myogenic responsiveness
myogenic tone in sham-operated mice ([6]; 550 nM in vitro in bath, sham arteries): does not affect myogenic tone
myogenic tone in arteries from HF and sham mice ([6]; 550 nM in vitro, 30 minutes, both HF and sham groups): attenuated to same level
reversibility of the reduction in myogenic responsiveness ([6]; 550 nM in vitro, repeated replacements of the incubating buffer): reversible
myogenic responsiveness at mid-rest phase ([6]; 10 μM in vitro, ZT7, one-step pressure 60 to 100 mmHg): reduces myogenic responsiveness only during the rest phase (ZT7)
myogenic responsiveness at mid-active phase ([6]; 10 μM in vitro, ZT19, one-step pressure 60 to 100 mmHg): not during the active phase (ZT19)
dose dependence of reduction in myogenic tone at mid-rest phase ([6]; ZT7, n=4-7 vessels per dose): dose-dependently reduces myogenic tone
resting diameter of the vessels ([6]; ZT7/ZT19 arteries): not affected
vessel dilation ([6]; ZT7/ZT19 arteries, before pressure stimulation): not affected
dose dependence of reduction in myogenic responsiveness [6]: dose-dependent decreases
myogenic responsiveness [6, 13]: reduces myogenic responsiveness
myogenic responsiveness in wild-type arteries ([6]; wild-type (WT) arteries, compared with TNF knockout): inhibits myogenic responsiveness
ERK1/2 phosphorylation, ZT7 versus ZT19 ([7]; cremaster arteries isolated at ZT7 or ZT19): reduces ERK1/2 phosphorylation to a greater extent during the rest phase (ZT7)
HF-induced elevations in myogenic tone ([8]; 30 mg/kg intraperitoneal, 5 days/wk): normalized
cardiac output (echocardiography) [8, 14]: elevated
phenylephrine-induced vasoconstriction [8, 14]: intact

Molecule: Etanercept
systemic blood pressure [9]: reduces systemic blood pressure
skeletal muscle resistance artery myogenic responsiveness [10]: attenuates skeletal muscle resistance artery myogenic responsiveness

Molecule: NCCNS(=O)(=O)c1ccc(Cl)c2ccncc12 [CKI-7]
ERK1/2 phosphorylation in response to sTNFRI-Fc ([1]; mesenteric vascular smooth muscle cells, inhibitor 1 μM): inhibited
sTNFR1-Fc-induced ERK1/2 phosphorylation [1]: abolished
sTNFR1-Fc-induced mTNF reverse signaling ([11]; cremaster arteries, in vitro application): abrogates
sTNFR1-Fc-stimulated vasoconstriction ([11]; sTNFR1-Fc 100 ng/mL): prevented
phenylephrine-induced vasoconstriction in TNF KO arteries ([4]; TNF KO arteries): not affected
phenylephrine-induced vasoconstriction (vessel health) [4]: remains intact
myogenic responsiveness ([6]; 10 μM in vitro, transmural pressure 20-100 mmHg in 20 mmHg steps): reduces myogenic responsiveness
myogenic responsiveness in TNF knockout arteries ([6]; TNF−/− (TNF KO) arteries, in vitro): not effective
dose dependence of reduction in myogenic responsiveness [6]: dose-dependent reductions
myogenic responsiveness [6, 13]: reduces myogenic responsiveness
sTNFR1-Fc-stimulated ERK1/2 phosphorylation ([7]; isolated cremaster resistance arteries after pressure myography): inhibited

Molecule: Adalimumab
mTNF reverse signaling (ERK1/2 phosphorylation) [12]: not stimulated unless the HEK cells express a tumour necrosis factor (TNF) plasmid construct

concentration inhibiting myogenic responses relative to the IC50 ([6]; fold greater than the IC50): ~1000 ×
Molecule: Nc1ncnc2c1c(COc1cccc(Cl)c1)nn2C1CCOCC1 [PF-4800567]
reduction in phenylephrine-induced vasoconstriction after correction to baseline tone ([4]; 30 μM dose, corrected to baseline tone): remains after correction to baseline tone
phenylephrine-induced vasoconstriction ([4]; arteries treated at the 30 μM dose): reduced
myogenic responsiveness ([6]; 30 μM in vitro): abrogates myogenic responsiveness
dose dependence of reduction in myogenic responsiveness [6]: dose-dependent reduction
